{"source": "patent US10512271B2", "about": "“Method for preventing or treating microbial growth on a manufactured product” (Stellenbosch University, priority 2014, dated 2019)", "key": {"[1]": {"system": "Micrococcus luteus NCTC 8340", "assay": "Antibacterial CFU growth assay, high nutrient environment", "assay_type": "cell-based", "method": "Micrococcus luteus NCTC 8340 was cultured from a freezer stock on Luria Bertani plates (LB: 1% (w/v) NaCl (Merck), 1% (w/v) tryptone (Merck), 0.5% (w/v) yeast extract (Merck), 1.5% (w/v) agar (BioLab) in analytical grade water) and incubated at 37° C. for a period of 48 hours. A colony inoculate in 20 mL of sterile LB broth was incubated at 37° C. until an A620=0.6 was reached. Peptide-treated matrix and a control untreated matrix were transferred to a LB agar plate (high nutrient environment). The M. luteus culture was diluted to A620 of 0.2, further diluted (2000-10000 fold) and transferred to both treated and untreated filters on the LB plate. Plates were incubated for 48 hours at 37° C., after which the matrixes were inspected for the number of colony forming units (CFU)."}, "red blood cells": {"system": "red blood cells", "assay": "Haemolytic assay on treated filter disks", "assay_type": "cell-based", "details": "peptide in solution", "method": "Fresh blood from anonymous donors (obtained from the Western Cape Blood transfusion Service, South Africa) was transferred to a sterile Falcon® tube, filled with sterile phosphate buffered saline (PBS: 4.0% (w/v) NaCl, 0.1% (w/v) KC, 0.72% (w/v) Na2HPO4, 0.1% (w/v) KH2PO4, pH 7.2, 5× concentrated stock solution) and centrifuged at 1200×g for 3 minutes. The supernatant was removed and the process repeated. The supernatant was removed once again and remaining blood cells were used for the assays. A clear 96-well microplate was used for this assay. Three disks of each of the matrixes (treated and untreated) were placed into the wells and 4 wells received 10 μL of gramicidin S as positive haemolytic control (1.0 mg/mL). Blood (100 μL at 2% hematocrit) was pipetted into each of the wells, after which the plates were sealed and incubated at 37° C. for 2 hours. […] The absorbance was measured at 595 nm. Percentage haemolysis was calculated by adapting an equation used for dose response assays (Rautenbach, Gerstner, Vlok, Kulenkamff and Westerhoff, 2005, Anal. Biochem. 350:81-90):\nA standard curve of tyrocidine doubling dilution (dose response), starting at 20 μg/mL, was used to determine the amount of Tres leading to lysis. Lysis was determined from the linear part of the dose-response curve using the equation: (% haemolysis−2.38)/5.74=[Trc] μg/mL."}, "[2]": {"assay": "Peptide adsorbed to filters, change in absorbance (A230) of incubation solution"}, "Gram-negative organisms": {"system": "Gram-negative organisms", "assay": "Activity of treated CL filters against Gram-negative organisms", "assay_type": "cell-based"}, "[3]": {"assay": "Wettability of treated filters (water drop size and time to absorption)", "assay_type": "physicochemical", "method": "The wettability of untreated and GS- and Trc-treated filters were determined to ascertain the effect the peptides have on the hydrophobicity of the filters. Water containing blue food colouring (50 μL) was pipetted onto untreated and treated filters and the filters were monitored for the drop size and time to complete absorption.\nThe wettability, an indicator of hydrophilic/hydrophobic character, could possibly be altered by the adsorption of peptide, and this change in character would be an indication of the orientation in which in the peptide adsorbed to the various filters. The wettability of untreated and treated filters was determined (Table 3) and the untreated filters were rated in terms of hydrophobicity based on the time it took for a water droplet to completely absorb into the filter. […] Trc treatment made CA much more hydrophilic, while GS also lead to an increase in hydrophilicity, indicating the exposure of the polar amino acids to the surface. Trc made the HAWP filters more hydrophobic, whereas the gramicidin S made the filter more hydrophilic."}, "M. luteus": {"system": "M. luteus", "assay": "Cell viability (vitality) assay, low nutrient environment, high cell count", "assay_type": "cell-based, Micrococcus luteus", "method": "Treated and untreated matrixes (filters, membrane and films) were punched into 5 mm disks and triplicate disks were transferred to black […] microplates. A mid-log phase M. luteus culture was diluted with LB media to A620 of 0.20 (1.3×10^7 CFU/mL). Each well received […] of the diluted culture ([…]) on top of the 5 mm disk. The plate was incubated at 37° C. for one hour after which 90 μL phosphate-buffered saline (PBS) and 10 μL CellTiter-Blue® Reagent was added to each well. The plate was again incubated for 2 hours at 37° C. After the […] incubation in the low nutrient environment, the fluorescence was determined at an excitation wavelength of 530 nm and emission wavelength of 590 nm. The fluorescence reading was taken with a Varioskan™ Multimode reader from Thermo Scientific™ controlled by Skanit Software 2.4.1 from Thermo Electron. Each plate was shaken for 5 seconds before measurements were taken at 25° C.\nCell viability was calculated using the equation: […]\nDifferent filters, surfaces and nanofibers, treated with Trc extract or GS, were assessed for the more direct short-term killing of M. luteus (sterilisation) using a low nutrient environment, high cell count and the Alamar Blue vitality assay to assess bacterial metabolism. […] This could be due to the limited spreading of the 5 μL culture on the filter, limiting the contact of the bacteria with the rest of the Trc-coated filter, and thus this assay could have underestimated the overall filter activity."}, "[4]": {"details": "Polycarbonate (PC, 0.45 μm pores)"}, "[5]": {"details": "Polyvinylidene difluoride (GVLP, 0.22 μm pores)"}, "[6]": {"details": "Polyvinylidene difluoride (HVLP, 0.45 μm pores)"}}, "note": "Square brackets hold non-standard residues; d marks the D form. Peptide text beside a SMILES is read from it. ξ: configuration not given here. Orn = NCCC[C@H](N)C(=O)O; ξP = O=C(O)C1CCCN1"}
{"compound": "CC(C)C[C@@H]1NC(=O)[C@H](CCCN)NC(=O)[C@H](C(C)C)NC(=O)C2CCCN2C(=O)[C@@H](Cc2ccccc2)NC(=O)[C@H](CC(C)C)NC(=O)[C@H](CCCN)NC(=O)[C@H](C(C)C)NC(=O)C2CCCN2C(=O)[C@@H](Cc2ccccc2)NC1=O", "note": "(some centres unmarked) [GS, Cyclo-(VOLfPVOLfP)] (cyclo(L[dF][ξP]V[Orn]L[dF][ξP]V[Orn]))", "values": [{"measurement": "protection of treated filters against overt colonisation by M. luteus", "setting": "[1]; 48 hour growth assay, low cell count, high nutrient environment, summary of Table 4", "value": "only protected CL, HDC and HVLP against overt colonisation"}, {"measurement": "M. luteus, detected CFU/cm^2 after 48 h in nutrient rich environment", "setting": "[1]; Cellulose (CL)", "value": 0, "unit": "CFU/cm^2"}, {"measurement": "M. luteus, detected CFU/cm^2 after 48 h in nutrient rich environment", "setting": "[1]; Cellulose Acetate (CA)", "value": "3 ± 1", "unit": "CFU/cm^2"}, {"measurement": "M. luteus, detected CFU/cm^2 after 48 h in nutrient rich environment", "setting": "[1]; High density cellulose (HDC)", "value": 0, "unit": "CFU/cm^2"}, {"measurement": "M. luteus, detected CFU/cm^2 after 48 h in nutrient rich environment", "setting": "[1]; Mixed nitrocellulose/cellulose acetate esters (GSWP 0.22 μm)", "value": "3 ± 1", "unit": "CFU/cm^2"}, {"measurement": "M. luteus, detected CFU/cm^2 after 48 h in nutrient rich environment", "setting": "[1]; Mixed nitrocellulose/cellulose acetate esters (HAWP, 0.45 μm)", "value": "4 ± 1", "unit": "CFU/cm^2"}, {"measurement": "M. luteus, detected CFU/cm^2 after 48 h in nutrient rich environment", "setting": "[1]; Polycarbonate (PC, 0.45 um)", "value": "4 ± 1", "unit": "CFU/cm^2"}, {"measurement": "M. luteus, detected CFU/cm^2 after 48 h in nutrient rich environment", "setting": "[1]; Polyvinylidene difluoride (GVHP, 0.22 μm)", "value": "3 ± 1", "unit": "CFU/cm^2"}, {"measurement": "M. luteus, detected CFU/cm^2 after 48 h in nutrient rich environment", "setting": "[1]; Polyvinylidene difluoride (HVLP, 0.45 μm)", "value": 0, "unit": "CFU/cm^2"}, {"measurement": "concentration at which lysis of red blood cells starts", "setting": "red blood cells", "value": "> 10", "unit": "µg/mL"}, {"measurement": "peptide adsorbed, Absorbance (A230)", "setting": "[2]; GVHP (0.22 μm) filter", "value": "5.3±1.1", "unit": "μg/cm^2"}, {"measurement": "peptide adsorbed, Absorbance (A230)", "setting": "[2]; HVLP (0.45 μm) filter", "value": "2.8±0.6", "unit": "μg/cm^2"}, {"measurement": "peptide adsorbed, Absorbance (A230)", "setting": "[2]; Polycarbonate filter", "value": "1.2±2.2", "unit": "μg/cm^2"}, {"measurement": "overt activity against Gram-negative organisms", "setting": "Gram-negative organisms", "value": "not demonstrated"}, {"measurement": "Drop Diameter", "setting": "[3]; Cellulose (CL, No 1)", "value": ">1", "unit": "cm"}, {"measurement": "Time until absorbed", "setting": "[3]; Cellulose (CL, No 1)", "value": "<0.167", "unit": "min"}, {"measurement": "induced change in hydrophobicity", "setting": "[3]; Cellulose (CL, No 1)", "value": "no change"}, {"measurement": "Drop Diameter", "setting": "[3]; Cellulose Acetate (CA)", "value": 0.85, "unit": "cm"}, {"measurement": "Time until absorbed", "setting": "[3]; Cellulose Acetate (CA)", "value": 5.01, "unit": "min"}, {"measurement": "induced change in hydrophobicity", "setting": "[3]; Cellulose Acetate (CA)", "value": "decrease"}, {"measurement": "Drop Diameter", "setting": "[3]; GSWP, 0.22 μm pores", "value": 0.81, "unit": "cm"}, {"measurement": "Time until absorbed", "setting": "[3]; GSWP, 0.22 μm pores", "value": 3.55, "unit": "min"}, {"measurement": "induced change in hydrophobicity", "setting": "[3]; GSWP, 0.22 μm pores", "value": "increase"}, {"measurement": "Drop Diameter", "setting": "[3]; HAWP, 0.45 μm pores", "value": 0.96, "unit": "cm"}, {"measurement": "induced change in hydrophobicity", "setting": "[3]; HAWP, 0.45 μm pores", "value": "slight"}, {"measurement": "Time until absorbed", "setting": "[3]; HAWP, 0.45 μm pores, 50 μL water drop", "value": 2.20, "unit": "min"}, {"measurement": "Drop Diameter", "setting": "[3]; High density cellulose (HDC)", "value": 0.94, "unit": "cm"}, {"measurement": "Time until absorbed", "setting": "[3]; High density cellulose (HDC)", "value": ">30", "unit": "min"}, {"measurement": "induced change in hydrophobicity", "setting": "[3]; High density cellulose (HDC)", "value": "slight"}, {"measurement": "Drop Diameter", "setting": "[3]; [4]", "value": 0.73, "unit": "cm"}, {"measurement": "Time until absorbed", "setting": "[3]; [4]", "value": ">30", "unit": "min"}, {"measurement": "induced change in hydrophobicity", "setting": "[3]; [4]", "value": "no change"}, {"measurement": "Drop Diameter", "setting": "[3]; [5]", "value": 1.00, "unit": "cm"}, {"measurement": "Time until absorbed", "setting": "[3]; [5]", "value": 17.25, "unit": "min"}, {"measurement": "induced change in hydrophobicity", "setting": "[3]; [5]", "value": "increase"}, {"measurement": "Drop Diameter", "setting": "[3]; [6]", "value": 0.72, "unit": "cm"}, {"measurement": "Time until absorbed", "setting": "[3]; [6]", "value": 9.20, "unit": "min"}, {"measurement": "induced change in hydrophobicity", "setting": "[3]; [6]", "value": "increase"}, {"measurement": "short-term killing of M. luteus (sterilisation)", "setting": "M. luteus; HDC and CL filters, FIG. 3A", "value": "Good protection"}, {"measurement": "short-term killing of M. luteus (sterilisation)", "setting": "M. luteus; HVLP filter, FIG. 3A", "value": "good protection"}, {"measurement": "short-term killing of M. luteus (sterilisation)", "setting": "M. luteus; all the other filters except PC, compared with growth assay", "value": "improved activity"}]}
